Results reported in PubChem BioAssay AID2060602 (Molecular Pharmacology Branch, DTP, NCI, 2025).
“And” between values parts separate entries of the source, which are not always exact repeats. Identical values can stand only once.

System: 648629-189-R-J1-PDC complex spheroids viability
Assay: Anticancer human tumor 648629-189-R-J1-PDC patient-derived bladder carcinoma cell line growth inhibition [CLK]
Conditions: for viability, T/C: stronger effect = lower value
Summary of the method: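 Multi-cell-type spheroids combined patient-derived tumor cells with HUVEC endothelial cells and human mesenchymal stem cells. Paired agents were dosed in half-log steps down from about clinical Cmax, or from 10 microM where Cmax was unknown.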

[1] = curve of first compound, second compound 0.0316 µM
[2] = curve of first compound, second compound 0.1 µM
[3] = curve of first compound, second compound 0.316 µM
[4] = curve of first compound, second compound 1 µM
[5] = curve of first compound, second compound 3.16 µM
[6] = curve of first compound, second compound 10 µM
[7] = second compound 0.0316 µM, first compound 0.000949 µM
[8] = second compound 0.0316 µM, first compound 0.003 µM
[9] = second compound 0.0316 µM, first compound 0.00949 µM
[10] = second compound 0.0316 µM, first compound 0.03 µM
[11] = second compound 0.0316 µM, first compound 0.0949 µM
[12] = second compound 0.0316 µM, first compound 0.3 µM
[13] = second compound 0.1 µM, first compound 0.000949 µM
[14] = second compound 0.1 µM, first compound 0.003 µM
[15] = second compound 0.1 µM, first compound 0.00949 µM
[16] = second compound 0.1 µM, first compound 0.03 µM
[17] = second compound 0.1 µM, first compound 0.0949 µM
[18] = second compound 0.1 µM, first compound 0.3 µM
[19] = second compound 0.316 µM, first compound 0.000949 µM
[20] = second compound 0.316 µM, first compound 0.003 µM
[21] = second compound 0.316 µM, first compound 0.00949 µM
[22] = second compound 0.316 µM, first compound 0.03 µM
[23] = second compound 0.316 µM, first compound 0.0949 µM
[24] = second compound 0.316 µM, first compound 0.3 µM
[25] = second compound 1 µM, first compound 0.000949 µM
[26] = second compound 1 µM, first compound 0.003 µM
[27] = second compound 1 µM, first compound 0.00949 µM
[28] = second compound 1 µM, first compound 0.03 µM
[29] = second compound 1 µM, first compound 0.0949 µM
[30] = second compound 1 µM, first compound 0.3 µM
[31] = second compound 3.16 µM, first compound 0.000949 µM
[32] = second compound 3.16 µM, first compound 0.003 µM
[33] = second compound 3.16 µM, first compound 0.00949 µM
[34] = second compound 3.16 µM, first compound 0.03 µM
[35] = second compound 3.16 µM, first compound 0.0949 µM
[36] = second compound 3.16 µM, first compound 0.3 µM
[37] = second compound 10 µM, first compound 0.000949 µM
[38] = second compound 10 µM, first compound 0.003 µM
[39] = second compound 10 µM, first compound 0.00949 µM
[40] = second compound 10 µM, first compound 0.03 µM
[41] = second compound 10 µM, first compound 0.0949 µM
[42] = second compound 10 µM, first compound 0.3 µM
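For viability, T/C in this document: drug exposure lasted seven days before viability readout; 100% = DMSO vehicle control wells.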

Compound: C=CC(=O)Nc1cc(Nc2nccc(-c3cn(C)c4ccccc34)n2)c(OC)cc1N(C)CCN(C)C + CNC(=O)c1ccc(Nc2nc(OC3CCCC3)c3c(-c4ccc5nc(C)oc5c4)c[nH]c3n2)c(OC)c1
- IC50 [1]: > 300 nM
- IC50 [2]: 132 nM
- IC50 [3]: < 0.949 nM
- IC50 [4]: < 0.949 nM
- IC50 [5]: < 0.949 nM
- IC50 [6]: < 0.949 nM
- viability, T/C [7]: 92.6%
- viability, T/C [8]: 103%
- viability, T/C [9]: 102%
- viability, T/C [10]: 97.1%
- viability, T/C [11]: 100%
- viability, T/C [12]: 95.4%
- viability, T/C [13]: 83.9%
- viability, T/C [14]: 73.5%
- viability, T/C [15]: 69.3%
- viability, T/C [16]: 66.2%
- viability, T/C [17]: 51%
- viability, T/C [18]: 42.6%
- viability, T/C [19]: 27.9%
- viability, T/C [20]: 27.3%
- viability, T/C [21]: 21.8%
- viability, T/C [22]: 19%
- viability, T/C [23]: 22.1%
- viability, T/C [24]: 15.5%
- viability, T/C [25]: 21.3%
- viability, T/C [26]: 19.4%
- viability, T/C [27]: 23.2%
- viability, T/C [28]: 16.1%
- viability, T/C [29]: 16.5%
- viability, T/C [30]: 13.2%
- viability, T/C [31]: 18.7%
- viability, T/C [32]: 19.8%
- viability, T/C [33]: 16.6%
- viability, T/C [34]: 16.1%
- viability, T/C [35]: 16.3%
- viability, T/C [36]: 14.8%
- viability, T/C [37]: 18.5%
- viability, T/C [38]: 22.1%
- viability, T/C [39]: 22.6%
- viability, T/C [40]: 17.6%
- viability, T/C [41]: 17.9%
- viability, T/C [42]: 13.8%

Compound: COc1c(OCCCN2CCOCC2)ccc2c3n(c(=NC(=O)c4cnc(N)nc4)nc12)CCN3
- viability, T/C (compound 0.00316 µM): 115% and 94.4%
- viability, T/C (compound 0.01 µM): 90.3% and 90.5%
- viability, T/C (compound 0.0316 µM): 74.8% and 77.7%
- viability, T/C (compound 0.1 µM): 46% and 41.9%
- viability, T/C (compound 0.316 µM): 16.8% and 13.3%
- viability, T/C (compound 1 µM): 7.93% and 6.55%
- IC50 (curve of compound): 78.3 nM and 76.7 nM

Compound: C=CC(=O)N1CCN(c2nc(=O)n(-c3c(C)ccnc3C(C)C)c3nc(-c4c(O)cccc4F)c(F)cc23)C(C)C1 (stereo not drawn) + CNC(=O)c1ccc(Nc2nc(OC3CCCC3)c3c(-c4ccc5nc(C)oc5c4)c[nH]c3n2)c(OC)c1
- IC50 [1]: > 10000 nM
- IC50 [2]: > 10000 nM
- IC50 [3]: < 31.6 nM
- IC50 [4]: < 31.6 nM
- IC50 [5]: < 31.6 nM
- IC50 [6]: < 31.6 nM
- viability, T/C (second compound 0.0316 µM, first compound 0.0316 µM): 120%
- viability, T/C (second compound 0.0316 µM, first compound 0.1 µM): 110%
- viability, T/C (second compound 0.0316 µM, first compound 0.316 µM): 115%
- viability, T/C (second compound 0.0316 µM, first compound 1 µM): 108%
- viability, T/C (second compound 0.0316 µM, first compound 3.16 µM): 115%
- viability, T/C (second compound 0.0316 µM, first compound 10 µM): 110%
- viability, T/C (second compound 0.1 µM, first compound 0.0316 µM): 91.9%
- viability, T/C (second compound 0.1 µM, first compound 0.1 µM): 94.6%
- viability, T/C (second compound 0.1 µM, first compound 0.316 µM): 90.1%
- viability, T/C (second compound 0.1 µM, first compound 1 µM): 87.9%
- viability, T/C (second compound 0.1 µM, first compound 3.16 µM): 93.5%
- viability, T/C (second compound 0.1 µM, first compound 10 µM): 82.5%
- viability, T/C (second compound 0.316 µM, first compound 0.0316 µM): 27%
- viability, T/C (second compound 0.316 µM, first compound 0.1 µM): 24.8%
- viability, T/C (second compound 0.316 µM, first compound 0.316 µM): 29.8%
- viability, T/C (second compound 0.316 µM, first compound 1 µM): 39.2%
- viability, T/C (second compound 0.316 µM, first compound 3.16 µM): 42.6%
- viability, T/C (second compound 0.316 µM, first compound 10 µM): 66.2%
- viability, T/C (second compound 1 µM, first compound 0.0316 µM): 23.5%
- viability, T/C (second compound 1 µM, first compound 0.1 µM): 26.6%
- viability, T/C (second compound 1 µM, first compound 0.316 µM): 23.5%
- viability, T/C (second compound 1 µM, first compound 1 µM): 24.2%
- viability, T/C (second compound 1 µM, first compound 3.16 µM): 26.9%
- viability, T/C (second compound 1 µM, first compound 10 µM): 46.2%
- viability, T/C (second compound 3.16 µM, first compound 0.0316 µM): 17.9%
- viability, T/C (second compound 3.16 µM, first compound 0.1 µM): 22.7%
- viability, T/C (second compound 3.16 µM, first compound 0.316 µM): 20.4%
- viability, T/C (second compound 3.16 µM, first compound 1 µM): 22.6%
- viability, T/C (second compound 3.16 µM, first compound 3.16 µM): 27.7%
- viability, T/C (second compound 3.16 µM, first compound 10 µM): 31.8%
- viability, T/C (second compound 10 µM, first compound 0.0316 µM): 19.7%
- viability, T/C (second compound 10 µM, first compound 0.1 µM): 20.5%
- viability, T/C (second compound 10 µM, first compound 0.316 µM): 20.3%
- viability, T/C (second compound 10 µM, first compound 1 µM): 27.3%
- viability, T/C (second compound 10 µM, first compound 3.16 µM): 33.2%
- viability, T/C (second compound 10 µM, first compound 10 µM): 28.5%

Compound: CC(C)CC(NC(=O)C(Cc1ccccc1)NC(=O)c1cnccn1)B(O)O (stereo not drawn) + CNC(=O)c1ccc(Nc2nc(OC3CCCC3)c3c(-c4ccc5nc(C)oc5c4)c[nH]c3n2)c(OC)c1
- IC50 [1]: 3.04 nM
- IC50 [2]: 2.21 nM
- IC50 [3]: < 0.949 nM
- IC50 [4]: < 0.949 nM
- IC50 [5]: < 0.949 nM
- IC50 [6]: < 0.949 nM
- viability, T/C [7]: 105%
- viability, T/C [8]: 50.5%
- viability, T/C [9]: 1.99%
- viability, T/C [10]: 0.26%
- viability, T/C [11]: 0.18%
- viability, T/C [12]: 1.59%
- viability, T/C [13]: 91.4%
- viability, T/C [14]: 35%
- viability, T/C [15]: 0.64%
- viability, T/C [16]: 0.21%
- viability, T/C [17]: 0.15%
- viability, T/C [18]: 1.03%
- viability, T/C [19]: 34.9%
- viability, T/C [20]: 35%
- viability, T/C [21]: 0.45%
- viability, T/C [22]: 0.28%
- viability, T/C [23]: 0.76%
- viability, T/C [24]: 0.16%
- viability, T/C [25]: 23.6%
- viability, T/C [26]: 24.1%
- viability, T/C [27]: 2.18%
- viability, T/C [28]: 0.36%
- viability, T/C [29]: 0.34%
- viability, T/C [30]: 1.9%
- viability, T/C [31]: 28.1%
- viability, T/C [32]: 9.77%
- viability, T/C [33]: 3.72%
- viability, T/C [34]: 0.62%
- viability, T/C [35]: 1.49%
- viability, T/C [36]: 0.23%
- viability, T/C [37]: 24.2%
- viability, T/C [38]: 14.2%
- viability, T/C [39]: 1.91%
- viability, T/C [40]: 0.53%
- viability, T/C [41]: 1.61%
- viability, T/C [42]: 1.49%
